Source: patent publication US10071042B2, “External dermatological agent for anti-ageing” (Hayashibara Co., Ltd., priority 2014, dated 2018)

Legend:
matrix metalloprotease-1 = test: Matrix metalloprotease-1 production of NHDF after IL-1β, ELISA (Experiments 5 and 9); format: cell-based, human; conditions: 200 μM, single use; reduction against control
Method: Normal human dermal fibroblasts (NHDF), which had been suspended in a Dulbecco's Modified Eagle Medium supplemented with 10% fetal calf serum to give a concentration of 2.5×10^5 cells/mL, were placed in 96-well microplates by 0.1 mL/well and cultured until reaching a confluent state over the bottom of each well. Thereafter, the medium in each well was replaced with a fresh serum-free culture medium and culture for another 24 hours, added with any one of the test substances in Table 6 at each concentration shown in the table, and cultured for additional 24 hours. Then, the resulting cell cultures were added with human IL-1β to give a final concentration of 1 ng/ml, followed by culturing the cells for another 24 hours. After completion of the culture, matrix metalloprotease-1 in the supernatant in each well was detected with an enzyme-linked immuno sorbent assay (ELISA), commercialized by R & D Systems, Inc., MN, USA, developed coloration with tetramethylbenzidine, and measured for absorption at a wavelength of 450 nm. A control system was provided similarly as above except for not adding any test substance, and determined for the activity of matrix metalloprotease-1 similarly as in the above to be regarded as 100%. The production level of matrix metalloprotease-1 for each test substance was comparatively evaluated based on the following equation. Equation: Production level of matrix metalloprotease-1 (relative value (%))=[(Absorbance of a sample with any one of test substances)/(Absorbance of control)]×100
The experiment was repeated three times, and the data were compared to that of control with the Dunnett's multiple comparisons test. The symbol “*” means a level of significance of p<0.01.
Except for adding the test substances listed in Table 12 at respective concentrations shown in the table, experiments were respectively conducted in accordance with the methods in Experiment 5 disclosed in the specification to examine the effect of the combination use with ascorbic acid 2-glucoside used as a skin whitener in cosmetics on the action of anti-wrinkles by analogues of adenosine N1-oxide 5′-phosphate. A control system was provided and similarly treated as above except for not adding any test substance. The reduction rate of the production level of matrix metalloprotease-1 against that of control based on the following equation. Equation: Reduction rate of the production level of matrix metalloprotease−1(%)=100−[(Absorbance of a sample with any one of test substances)/(Absorbance of control)]×100

[1] = tested on: normal human epidermal keratinocytes; test: Production level of cornified envelope, absorbance 310 nm (Experiments 1-2 and 7); format: cell-based; conditions: single use, increase over control
Method: Normal human epidermal keratinocytes were cultured similarly as in Experiment 1-1, except for adding the test substances listed in Table 2 at prescribed concentrations to the cells. The resulting cultured cells were washed once with phosphate buffered saline (PBS), followed by scrapping off the cells adhered to each culture plate by adding 0.5 mL of PBS to each well of the plates. The cell suspensions thus obtained were added with 10% sodium lauryl sulfate solution in a volume of ¼ of each of the suspension volumes, followed by stirring and freezing the resulting mixtures at −80° C. After thawing, the resulting mixtures were centrifuged at 12,000×g for 15 min, followed by collecting the cell precipitates which were then washed once with phosphate buffered saline containing 2% sodium lauryl sulfate. The resulting mixtures were centrifuged at 12,000×g for 15 min, followed by collecting the cells and suspending the collected cells with phosphate buffered saline containing 2% sodium lauryl sulfate and 20 mM dithiothreitol. The resulting cell suspensions were boiled in a boiling water bath for one hour and measured for absorbance at a wavelength of 310 nm to determine the production level of cornified envelope for each test system added with any of the test substances. A control system was provided similarly as above except for not adding any one of the test substances to the system, and determined for absorbance at a wavelength of 310 nm similarly as in the above to be regarded as 100%. The production level of cornified envelope for each test substance was relatively evaluated based on the following equation. Equation: Production level of cornified envelope (Relative value (%))=[(Absorbance of a sample with any one of test substances)/(Absorbance of Control)]×100
(§1) The experiment was repeated three times, and the data was subjected to the Dunnett's multiple comparisons with Control. The symbol “*” means a level of significance of p<0.01.
(§2) Except for adding the test substances listed in Tables 8 and 9 at respective concentrations shown in the tables, experiments were respectively conducted in accordance with the methods in Experiments 1-2 and 1-3 disclosed in the specification to examine the effect of the combination use of epigallocatechin gallate, which is used as an antioxidant for cosmetics, and sodium adenosine N1-oxide 5′-phosphate on the action of accelerating the cornified-envelope production and the action of enhancing the transglutaminase activity of sodium adenosine N1-oxide 5′-phosphate. A control system was provided and similarly treated as above except for not adding any test substance and was determined for both the increase rates of cornified-envelope production level and the transglutaminase activity, based on the following equations. Equation: Increase rate of cornified envelope production level (%)={[(Absorbance of a sample with any one of test substances)/(Absorbance of control)]×100}−100 Equation: Increase rate of transglutaminase (%)={[(Absorbance of a sample with any one of test substances)/(Absorbance of control)]×100}−100

transglutaminase = test: Transglutaminase activity, fluorescein cadaverine uptake (Experiments 1-3 and 7); format: cell-based, human; conditions: single use, increase over control
Method: Normal human epidermal keratinocytes were cultured similarly as in Experiment 1-1, except for adding the test substances as listed in Table 3 to respective culture systems. The cultured normal human epidermal keratinocytes were added with 100 μM of fluorescein cadaverine and allowed to stand for four hours. Thereafter, the resulting cells were washed once with phosphate buffered saline and further treated with cold methanol for 10 min for cell fixation. The fixed cells were washed thrice with cold methanol, followed by the addition of phosphate buffered saline. Fluorescein cadaverine taken in the cells via transglutaminase was analyzed with Cell Imaging Station, commercialized by Molecular Probes Life Technology, France, and the analyzed fluorescent intensities were regarded as transglutaminase activities. There was provided a control system similarly as in the above, except for not adding any of the test substances. The transglutaminase activity of each test substance was evaluated as a relative value determined with the following equation using the fluorescent intensity of the control system being regarded as 100%. Equation: Transglutaminase activity (relative value (%))=[(Fluorescent intensity of a sample with any one of test substances)/(Fluorescent intensity of control)]×100
as §1, §2

filaggrin protein = test: Expression of filaggrin protein, Western blot filaggrin/actin (Experiment 3); format: cell-based, human; conditions: 0.5 mM (positive control); control = 100%
Method: Then, the expression of filaggrin was induced in such a manner of further culturing the cells for another four days, while replacing the culture medium with an EpiLife medium supplemented with 2 μM, 5 μM, or 10 μM of sodium adenosine N1-oxide 5′-phosphate every three days. […] After four days culture, the resultant cells were washed with Dulbecco's phosphate buffered saline, added with 0.1 mL of an SDS sample buffer (pH 6.8) containing 62.5 mM Tris-HCl, 2% SDS, 10% glycerol, and 50 mM DTT along with a protease inhibitor, and collected with a cell scraper. The collected cells were boiled for 10 min, disrupted ultrasonically, and quantified with “Pierce BCA Protein Assay Kit”, commercialized by ThermoFisher Scientific K. K., Yokohama, Japan. A prescribed amount of the resulting disrupted cells was sampled and subjected to SDS-polyacrylamide gel electrophoresis in an amount of 100 μg/lane, and the resulting gel was transferred to a PVDF membrane. The resulting transferred PVDF membrane was blocked with “Block Ace”, commercialized by DS Pharma Biomedical Co., Ltd., Osaka, Japan, reacted with a 200-fold dilution of “AKH1”, a mouse anti-filaggrin antibody, commercialized by, Santa Cruz Biotechnology Inc., CA, USA, or a 20,000-fold dilution of “MAB1501”, a mouse actin antibody, commercialized by Chemicon International Inc., MA, USA, as a first antibody, and then reacted with a 2,000-fold dilution of “P0447”, an HRP-labeled anti-mouse immunoglobulin, commercialized by Dako Japan, Tokyo, Japan, as a secondary antibody. After the reaction, by using ECL Plus Western Blotting Detection System, commercialized by GE Healthcare Japan, Tokyo, Japan, bands were detected on “Hyperfilm ECL”, a chemiluminescent film commercialized by GE Healthcare Japan, Tokyo, Japan. The detected bands were analyzed and quantified with “Image J”, an image analyzing software. A control system with no addition of any of the test substances was provided and the increasing intensity ratio of a band of filaggrin/actin was regarded as 100%, with which data for the increased percentages of the intensity ratios of bands of filaggrin/actin of the test substances were comparatively evaluated.

[2] = tested on: human epidermoid carcinoma cell line A-431; test: Tight-junction function, lucifer yellow transmittance (Experiments 2 and 8); format: cell-based; conditions: 3 mM, single use; reduction against control
Source text: A human epidermoid carcinoma cell line A-431 was suspended in a media, supplemented with any of the test substances disclosed in Table 4 and having respective concentrations as indicated in the table, to give a cell concentration of 1×10^5 cells/mL, and each cell suspension was placed in an insert cup for a 12-well culture plate by two milliliters per well, followed by culturing the cells until reaching a confluent state through over the bottom surface of each well. The inner and the outer cup volumes were adjusted to give two milliliters while checking both the liquid levels of the cups were constant, and lucifer yellow as a model for permeating substance, commercialized by Life Technologies Corporation, CA, USA, was added to each inner cup to give a final concentration of 100 μM. Thereafter, the fluorescent intensities of lucifer yellow in the culture media in both the inner and the outer cups were measured, followed by calculating the percentage of the fluorescent intensity of the outer cup against that of the sum of the outer and the inner cups for use as a transmittance of lucifer yellow with the following equation. Equation: Transmittance of lucifer yellow (%)={(Absorbance of a liquid outside of an insert cup)/[(Absorbance of a liquid inside of the insert cup)+(Absorbance of the liquid outside of the insert cup)]}×100
There was provided a control system prepared similarly as above except for not adding any of the test substances, and the transmittance of lucifer yellow was regarded as 100% for evaluating the reduction of transmittance due to the reinforcement of the function of tight junction, based on the following equation. Equation: Relative transmittance (Relative percentage (%)) of lucifer yellow=[(Transmittance of a sample with any one of test substances)/(Transmittance of control)]×100
The experiment was repeated three times, and the data was subjected to the Dunnett's multiple comparisons with control. The symbol “*” means a level of significance of p<0.01.
Except for adding the test substances listed in Table 11 at respective concentrations shown in the table, experiments were respectively conducted in accordance with the methods in Experiment 2 disclosed in the specification to examine the effect of the combination use with ethylenediaminetetraacetate used as a preservative for cosmetics on the action of reinforcing the function of tight junction by sodium adenosine N1-oxide 5′-phosphate. A control system was provided and similarly treated as above except for not adding any test substance. The reduction rate of relative transmittance of lucifer yellow against that of control based on the following equation. Equation: Reduction rate of relative transmittance of lucifer yellow (%)=100−[(Transmittance of a sample with any one of test substances)/(Transmittance of control)]×100

O=C1O[C@H]([C@@H](O)CO)C(O)=C1O[C@H]1O[C@H](CO)[C@@H](O)[C@H](O)[C@H]1O [Ascorbic acid 2-glucoside, reference compound]
Reduction rate of the production level of matrix metalloprotease-1 activity (%) (matrix metalloprotease-1): 2.1%

O=C(O[C@@H]1Cc2c(O)cc(O)cc2O[C@@H]1c1cc(O)c(O)c(O)c1)c1cc(O)c(O)c(O)c1 [Epigallocatechin gallate, reference compound]
Increase rate of cornified envelope formation level (%) ([1]; 1.6 μM): 28.0%
Increase rate of cornified envelope formation level (%) ([1]; 3.3 μM): 37.3%
Increase rate of transglutaminase activity (%) (transglutaminase; 1.6 μM): 5.6%
Increase rate of transglutaminase activity (%) (transglutaminase; 3.3 μM): 19.0%
Increase rate of transglutaminase activity (%) (transglutaminase; 6.5 μM): 6.5%

[Ca+2].[Cl-].[Cl-] [CaCl2, calcium chloride, reference compound]
Relative expression level of filaggrin protein (%) (filaggrin protein): 289%

O=C(O)CN(CCN(CC(=O)O)CC(=O)O)CC(=O)O [Ethylenediaminetetraacetate, reference compound]
Reduction rate of relative transmittance of lucifer yellow (%) [2]: −24.7%
